In experiment [1] the target is DDR2 (Homo sapiens (Human), UniProt Q16832). Put plainly: DDR2 binding assay (LanthaScreen Europium Kinase Binding assay). The protocol: (§1) DDR1 and DDR2 binding assays were performed using Life Technologies LanthaScreen™ Europium Kinase Binding assay. The compounds were incubated with 5 nM DDR1 (Carna Biosciences) or 5 nM DDR2 (Life Technologies) for 1 hour at room temperature in white 384-well OptiPlate (PerkinElmer), containing 20 nM or 10 nM Kinase Tracer 178 respectively and 2 nM Europium labelled anti-GST antibody (Life Technologies) in assay buffer (50 mM HEPES pH 7.5, 10 mM MgCl2, 1 mM EGTA and 0.01% BRIJ35).
(§2) The ratio of fluorescence emission 665 nm/615 nm after excitation at 340 nm was obtained using the Tecan Spark 20M plate reader. IC50 values were determined in GraphPad Prism 7.0 software, using 4 parameter model: log(inhibitor) vs. response. IC50 values were converted in Ki using the Cheng-Prusoff equation (Ki=IC50/(1+[Tracer]/Kd).
For orientation: Time-resolved FRET reads energy transfer from a long-lived donor to a nearby acceptor.

Experiment [2] concerns the target T1, DDR1 (Homo sapiens (Human), UniProt Q08345). The experiment is described as follows: DDR1 binding assay (LanthaScreen Europium Kinase Binding assay). The protocol: as §1, §2
For experiment [3], the target named is T1, DDR1. Put plainly: DDR1 cell based assay (PathHunter U2OS DDR1 assay). As to conditions: U2OS-DDR1 cells, Type II Collagen stimulation, potency class. As for the experimental part:
The inhibition of DDR1 receptor activation by compounds was evaluated by PathHunter® U2OS DDR1 assay (Eurofins DiscoverX), according to the manufacturer's instructions. Briefly, U2OS-DDR1 cells were seeded in white 384-well plates at a density of 5000 cells/well and incubated for 2 hours at 37° C. and 5% CO2. Cells were then treated with compounds at different concentrations and incubated for 30 minutes, before stimulation with bovine Type II Collagen 20 μg/ml and incubation overnight at 37° C. and 5% CO2. PathHunter Detection Reagents were prepared according to the protocol provided by DiscoverX and 20 μl/well of this mix were added to each well. After incubating the plates for 1 hour at room temperature in the dark, luminescence signal was acquired with a plate reader. Raw data were normalized to vehicle control (0% for normalization) and positive control (100% for normalization; cells treated with 20 μg/ml collagen II) and IC50 parameters were calculated in GraphPad Prism 8.0 software, using sigmoidal dose-response curve fitting with variable slope.

Where [4] appears, read: potency class, read-out: Ki DDR2.
[5] abbreviates: potency class, read-out: Ki DDR1.

SMILES strings stand for the structures. Read-outs that look alike come from different tables or passages of the source. A value given as a limit tells only on which side of the number the result lay.

T1 sequence (Q08345 19-913): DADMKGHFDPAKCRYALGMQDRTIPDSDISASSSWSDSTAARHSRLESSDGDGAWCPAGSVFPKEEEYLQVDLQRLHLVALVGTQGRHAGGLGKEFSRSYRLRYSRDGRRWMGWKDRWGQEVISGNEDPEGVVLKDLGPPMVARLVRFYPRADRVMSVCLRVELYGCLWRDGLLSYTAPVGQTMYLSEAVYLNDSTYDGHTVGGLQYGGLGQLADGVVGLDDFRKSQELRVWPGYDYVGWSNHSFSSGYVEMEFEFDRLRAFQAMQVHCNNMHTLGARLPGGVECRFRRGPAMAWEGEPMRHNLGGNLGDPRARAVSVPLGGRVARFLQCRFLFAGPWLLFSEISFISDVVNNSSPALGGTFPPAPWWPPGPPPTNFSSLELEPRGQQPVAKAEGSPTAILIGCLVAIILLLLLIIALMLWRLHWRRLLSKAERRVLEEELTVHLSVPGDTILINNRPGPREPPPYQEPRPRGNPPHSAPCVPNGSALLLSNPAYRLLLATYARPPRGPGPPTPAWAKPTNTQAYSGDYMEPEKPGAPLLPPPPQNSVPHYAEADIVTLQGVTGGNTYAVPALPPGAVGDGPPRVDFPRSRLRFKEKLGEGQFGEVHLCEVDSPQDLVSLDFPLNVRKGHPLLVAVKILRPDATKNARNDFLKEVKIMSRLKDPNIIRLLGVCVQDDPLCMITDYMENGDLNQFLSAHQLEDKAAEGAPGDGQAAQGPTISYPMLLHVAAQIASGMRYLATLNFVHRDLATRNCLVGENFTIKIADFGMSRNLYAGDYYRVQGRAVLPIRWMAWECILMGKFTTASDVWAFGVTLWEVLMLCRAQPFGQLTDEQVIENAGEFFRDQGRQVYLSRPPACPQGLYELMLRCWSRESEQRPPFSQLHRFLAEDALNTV
Chain of DDR2 (Q16832 22-855): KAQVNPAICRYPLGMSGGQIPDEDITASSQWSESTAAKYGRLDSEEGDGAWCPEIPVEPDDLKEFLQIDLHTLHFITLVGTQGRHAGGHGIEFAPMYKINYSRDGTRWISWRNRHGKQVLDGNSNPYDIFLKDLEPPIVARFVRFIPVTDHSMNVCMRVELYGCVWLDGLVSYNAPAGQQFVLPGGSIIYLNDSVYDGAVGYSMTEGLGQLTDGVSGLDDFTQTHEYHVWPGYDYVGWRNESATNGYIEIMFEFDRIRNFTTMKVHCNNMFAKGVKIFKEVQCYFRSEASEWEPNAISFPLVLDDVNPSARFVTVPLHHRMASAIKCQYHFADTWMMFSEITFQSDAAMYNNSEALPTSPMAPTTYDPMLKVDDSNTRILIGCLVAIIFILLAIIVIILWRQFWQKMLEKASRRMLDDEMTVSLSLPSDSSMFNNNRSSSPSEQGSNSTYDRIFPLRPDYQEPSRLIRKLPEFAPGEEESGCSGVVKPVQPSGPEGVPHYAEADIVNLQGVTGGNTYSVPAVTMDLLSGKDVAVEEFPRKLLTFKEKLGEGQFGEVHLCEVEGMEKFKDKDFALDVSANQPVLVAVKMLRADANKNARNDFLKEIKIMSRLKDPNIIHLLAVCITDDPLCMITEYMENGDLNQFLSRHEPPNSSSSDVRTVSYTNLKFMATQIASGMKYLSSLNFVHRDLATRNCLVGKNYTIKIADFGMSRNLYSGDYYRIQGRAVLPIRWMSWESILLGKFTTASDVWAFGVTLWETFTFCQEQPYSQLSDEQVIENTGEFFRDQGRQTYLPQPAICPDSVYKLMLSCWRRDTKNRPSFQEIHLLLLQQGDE

What is called Ki is the dissociation constant of the complex between target and ligand, obtained from inhibition or displacement. Broadly, the IC50 is the concentration at which inhibition is half-maximal. Lower therefore signals higher potency. As to `CN(C)[C@@H]1CCN(Cc2cc(NC(=O)c3csc4c3CCN(Cc3cncnc3OC3CC3)C4)cc(C(F)(F)F)c2)C1` [Example 53, (R)-6-((4-cyclopropoxypyrimidin-5-yl)methyl)-N-(3-((3-(dimethylamino)pyrrolidin-1-yl)methyl)-5-(trifluoromethyl)phenyl)-4,5,6,7-tetrahydrothieno[2,3-c]pyridine-3-carboxamide], the inhibitory constant (Ki) in experiment [1] (setting [4]) and in experiment [2] (setting [5]) was below 25 nM each time. In experiment [3], this compound yielded an IC50 of 25 to 50 nM.

For the compound `O=C(Nc1cccc(C(F)(F)F)c1)c1csc2c1CCN(Cc1cccnc1)C2` [Example 25, 6-(pyridin-3-ylmethyl)-N-(3-(trifluoromethyl)phenyl)-4,5,6,7-tetrahydrothieno[2,3-c]pyridine-3-carboxamide], the Ki in experiment [1] (setting [4]) and in experiment [2] (setting [5]) was below 25 nM throughout. The IC50 in experiment [3] fell in the range of 25 to 50 nM.

On to `CN(C)Cc1cc(NC(=O)c2csc3c2CCN(Cc2cnc(N)nc2)C3)cc(C(F)(F)F)n1` [Example 57, 6-((2-aminopyrimidin-5-yl)methyl)-N-(2-((dimethylamino)methyl)-6-(trifluoromethyl)pyridin-4-yl)-4,5,6,7-tetrahydrothieno[2,3-c]pyridine-3-carboxamide], for which the results for the Ki in experiment [1] (setting [4]) and in experiment [2] (setting [5]) were 25 to 50 nM and below 25 nM, respectively. Further, in experiment [3], the IC50 lay within 25 to 50 nM.

For `CN(C)Cc1cc(NC(=O)c2csc3c2CCN(Cc2cnc(N)nc2)C3)cc(C(F)(F)F)c1` [Example 55, 6-((2-aminopyrimidin-5-yl)methyl)-N-(3-((dimethylamino)methyl)-5-(trifluoromethyl)phenyl)-4,5,6,7-tetrahydrothieno[2,3-c]pyridine-3-carboxamide], the Ki in experiment [1] (setting [4]) and in experiment [2] (setting [5]) was below 25 nM in each case. In experiment [3], this compound had an IC50 of 25 to 50 nM.

In the case of `Nc1nccnc1CN1CCc2c(C(=O)Nc3cncc(C(F)(F)F)c3)csc2C1` [Example 36, 6-((3-aminopyrazin-2-yl)methyl)-N-(5-(trifluoromethyl)pyridin-3-yl)-4,5,6,7-tetrahydrothieno[2,3-c]pyridine-3-carboxamide], the Ki in experiment [1] (setting [4]) and in experiment [2] (setting [5]) was below 25 nM each time. In experiment [3], this compound showed an IC50 below 25 nM.

`Nc1ncc(CN2CCc3c(C(=O)Nc4cncc(OC(F)(F)F)c4)csc3C2)cn1` [Example 60, 6-((2-aminopyrimidin-5-yl)methyl)-N-(5-(trifluoromethoxy)pyridin-3-yl)-4,5,6,7-tetrahydrothieno[2,3-c]pyridine-3-carboxamide]: the inhibition constant Ki in experiment [1] (setting [4]) and in experiment [2] (setting [5]) was below 25 nM in each case. In experiment [3], the IC50 is below 25 nM.

For the compound `O=C(Nc1cncc(C(F)(F)F)c1)c1csc2c1CCN(Cc1cccnc1)C2` [Example 34, 6-(pyridin-3-ylmethyl)-N-(5-(trifluoromethyl)pyridin-3-yl)-4,5,6,7-tetrahydrothieno[2,3-c]pyridine-3-carboxamide], the inhibitory constant (Ki) in experiment [1] (setting [4]) and in experiment [2] (setting [5]) was below 25 nM throughout. Besides, the half-maximal inhibitory concentration (IC50) in experiment [3] lay in the range of 25 to 50 nM.

With `Cn1nc(C(C)(C)C)cc1NC(=O)c1csc2c1CCN(Cc1cnc(N)nc1)C2` [Example 26, 6-((2-aminopyrimidin-5-yl)methyl)-N-(3-(tert-butyl)-1-methyl-1H-pyrazol-5-yl)-4,5,6,7-tetrahydrothieno[2,3-c]pyridine-3-carboxamide], the values for the Ki in experiment [1] (setting [4]) and in experiment [2] (setting [5]) were 25 to 50 nM and below 25 nM, respectively. In addition, the IC50 in experiment [3] fell in the range of 25 to 50 nM.

For `CN1CCN(Cc2cc(NC(=O)c3csc4c3CCN(c3cncnc3)C4)cc(C(F)(F)F)c2)CC1` [Example C1, N-(3-((4-methylpiperazin-1-yl)methyl)-5-(trifluoromethyl)phenyl)-6-(pyrimidin-5-yl)-4,5,6,7-tetrahydrothieno[2,3-c]pyridine-3-carboxamide], the Ki in experiment [1] (read-out: DDR2 Ki) turned out to be 172 nM; in experiment [2] (read-out: DDR1 Ki), 238 nM.

Turning to `Cc1cn(-c2cc(NC(=O)c3cc4c(s3)CN(c3cncnc3)CC4)cc(C(F)(F)F)c2)cn1` [Example C2], the Ki in experiment [1] (read-out: DDR2 Ki) worked out at 50000 nM; in experiment [2] (read-out: DDR1 Ki), 29000 nM.

The record behind these values is patent US20240199635A1, “TETRAHYDROTHIENO PYRIDINE DERIVATIVES AS DDRS INHIBITORS” (CHIESI FARMACEUTICI S.P.A., priority 2021, published 2024).
